Reference: patent US20220048900A1, “AMORPHOUS SPARSENTAN COMPOSITIONS” (Travere Therapuetics, Inc., priority 2018, published 2022)

Assays:
[1] = Pharmacokinetics of modified release sparsentan formulations, PO (Example 5); assay type: in vivo, male Sprague Dawley rats; details: male rats
Procedure: Sparsentan was administered orally (“PO”) to male Sprague Dawley rats in a single or twice-a-day dose, as described in Table 14. Formulations were administered in a vehicle comprised of a mixture of 0.5% methylcellulose 4000 cps and 0.25% Tween 80 in distilled water. All animals were fasted overnight through approximately 4 hours post-dose. Animals receiving Formulation #2 were not fasted for the second dose administration.
Blood (approximately 0.3 mL) was collected from a jugular vein from each animal via syringe and needle and transferred into tubes containing K2EDTA at approximately 0.5, 1, 2, 4, 8 (prior to second dose for Group 2), 10, 12, and 24 hours post-dose. Another vein may be used as an alternative blood collection site. For each group, the following PK parameters were determined: maximum observed plasma concentration (Cmax), time of maximum observed plasma concentration (Tmax), and area under the plasma concentration-time curve (AUC). AUC from time 0 to 24 hours (AUC0-24 hr) was calculated for all groups with at least three consecutive quantifiable concentrations.

[2] = Pharmacokinetics of crystalline and amorphous sparsentan formulations, single IV or PO dose (Example 4); assay type: in vivo, male Sprague Dawley rats; details: for % F (dose-normalized AUC0-24 hr PO/IV): vs IV crystalline sparsentan 1 mg/kg
Procedure: Sparsentan was administered intravenously as a bolus injection (“IV”) or orally (“PO”) to male Sprague Dawley rats in a single dose, as described in Table 11. Four sparsentan formulations were tested: crystalline sparsentan (“Crystalline Sp”); spray dried dispersion particles formed from a 50:50 mixture of sparsentan and polyvinylpyrrolidone-vinyl acetate copolymer (“50:50 Sp:PVP-VA SDD”); spray dried dispersion particles formed from a 50:50 mixture of sparsentan and hydroxypropyl methylcellulose (“50:50 Sp:HPMC E3LV SDD”); and spray dried dispersion particles formed from a 50:50 mixture of sparsentan and hypromellose acetate succinate HG (“50:50 Sp: HPMCAS-H SDD”). Formulations were administered in a vehicle comprised of either a mixture of PEG400:ethanol:sterile water (30:30:40 v/v/v) (“A”) or a mixture of 0.5% Methocel A4M, 0.1% Tween-80 in purified water (“B”).
Blood samples were collected at 0.083 (Group 1 only), 0.25, 0.5, 1, 2, 4, 6, 8, and 24 hours post dose. Blood was collected into tubes containing K2EDTA and centrifuged, and resulting plasma samples were obtained. For each group, the following PK parameters were determined: maximum observed plasma concentration (Cmax), time of maximum observed plasma concentration (Tmax), and area under the plasma concentration-time curve (AUC). AUC from time 0 to 24 hours (AUC0-24 hr) was calculated for all groups with at least three consecutive quantifiable concentrations. For the IV dose, extrapolated null concentration (C0) was calculated and used as Cmax at time zero. For the oral doses, extrapolated value at time zero was assigned as 0.0 ng/m L. The AUC based on actual collection time point was from 0.083 to 24 hours for IV group and from 0.25 to 24 hour for PO group. Absolute bioavailability evaluation was determined as “% F” between single dose IV and oral dose, calculated as follows:
% F=Mean Dose Normalized AUC0-24 hr(PO)/Mean Dose Normalized AUC0-24 hr (IV).

[3] = MDSC of sparsentan and spray dried sparsentan dispersions; assay type: physicochemical
Procedure: MDSC was performed using a TA Instruments Q200 differential scanning calorimeter equipped with a TA instruments Refrigerated Cooling System 90. MDSC was used to measure glass transition temperature (Tg), cold crystallization (Tc), defined as a crystallization event at a temperature lower than the melt temperature, and melting temperature (Tm). Samples were placed in non-hermetic aluminum pans and heated at a constant rate of 2.0° C./min over a 25-200° C. temperature range. The system was purged by nitrogen flow at 50 mL/min to ensure inert atmosphere through the course of measurement.
Thermal properties, melting temperature (Tm), glass transition temperature (Tg), and crystallization temperature (Tc) of sparsentan was measured by MDSC. The Tg was measured via a melt-quench technique, heating past its melting temperature and rapidly cooling to trap the molten material in an amorphous state. The resulting sample was analyzed by MDSC and a Tg of 42° C. was determined (FIG. 4).

Cmax ([1]; Sprague Dawley, rat, 60 mg/kg/day, plasma, dose mg/kg/day #1 60, #2 60 (30 x 2, from first dose), #3 38, #4 28.8, #5 30, #6 28.6) [µg/mL] | AUC ([1]; Sprague Dawley, rat, 60 mg/kg/day, plasma, dose mg/kg/day #1 60, #2 60 (total dose), #3 38, #4 28.8, #5 30, #6 28.6, read-out: AUC0.5-24 hr) [µg·h/mL] | Tmax ([1]; Sprague Dawley, rat, plasma, 60 mg/kg/day, median, dose mg/kg/day #1 60, #2 60 (30 x 2, from first dose), #3 38, #4 28.8, #5 30, #6 28.6) [h] | Cmax/Dose ([1]; dose-normalized, #2 from first dose) [kg·ng/mL/mg] | AUC0.5-24 hr/Dose ([1]; dose-normalized, #2 from the total dose) [kg·ng·h/mL/mg] | % F (dose-normalized AUC0-24 hr PO/IV) ([2]; Group 2: PO 20 mg/kg) [%] | % F (dose-normalized AUC0-24 hr PO/IV) ([2]; Group 3: PO 60 mg/kg) [%] | Cmax increase with increasing dose (dose proportionality) ([2]; oral doses 20 and 60 mg/kg, male rats) | Tg ([3]; melt-quench technique) [°C] | physical stability ([3]; modulated ramp up to 200° C.) | SMILES
54.6 | 311 | 4 | 909 | 5189 | 50.1 | 55.2 | approximately dose proportional | – | – | CCCCC1=NC2(CCCC2)C(=O)N1Cc1ccc(-c2ccccc2S(=O)(=O)Nc2noc(C)c2C)c(COCC)c1 [crystalline sparsentan, 2-[4-[(2-butyl-4-oxo-1,3-diazaspiro[4.4]non-1-en-3-yl)methyl]-2-(ethoxymethyl)phenyl]-N-(4,5-dimethyl-1,2-oxazol-3-yl)benzenesulfonamide]
– | – | – | – | – | – | – | – | 42 | stable as a neat amorphous form | CCCCC1=NC2(CCCC2)C(=O)N1Cc1ccc(-c2ccccc2S(=O)(=O)Nc2noc(C)c2C)c(COCC)c1 [Sparsentan, 2-[4-[(2-butyl-4-oxo-1,3-diazaspiro[4.4]non-1-en-3-yl)methyl]-2-(ethoxymethyl)phenyl]-N-(4,5-dimethyl-1,2-oxazol-3-yl)benzenesulfonamide]
